Results taken from patent US20080085889A1, “Amidomethyl-Substituted 1-(Carboxyalkyl) Cyclopentyl-Carbonylamino-Benzazepine-N-Acetic Acid Compounds, Process and Intermediate Products for Their Preparation and Pharmaceutical Compositions Containing Them” (SOLVAY PHARMACEUTICALS GmbH, priority 2003, published 2008).

Tests used:
[1] = system: formation of ET-1 from Big-ET-1; assay: In vivo inhibition of the Big-ET-1-induced blood pressure increase in anaesthetised rats, i.v. single dose; parameters: species or system Rats (Sprague-Dawley); settings: Rattus norvegicus, iv, 5 min before 0.5 nmol/kg Big-ET-1, negative values indicate inhibition, read-out: % substance-related inhibition of the maximum Big-ET effect on SAP vs. control; for change in vivo at 10 µmol/kg: 10 μmol/kg; for change in vivo at 3 µmol/kg: 3 μmol/kg
From the text: 3. In Vivo Investigation of the Inhibitory Action of the Substances on the Formation of ET-1 from Big-ET-1 in Rats
ET-1 is an endogenous substance with strong vasoconstrictive effect. An increase in the ET-1 level results in an increase in blood pressure. Upon infusion of Big-ET-1, an increase in blood pressure takes place to the extent that ET-1 is produced therefrom by enzyme-catalysed cleavage of Big-ET-1. As a measurement of the enzyme-inhibiting action of the substances, their inhibitory action on the increase in blood pressure induced by infusion of Big-ET-1 was determined.
Rats (Sprague-Dawley, CRLD=Charles River) were anaesthetised with 1 ml/kg Rompun/Ketavet 1:1. A pressure transducer (Statham) was inserted into the carotid artery to measure blood pressure. One jugular vein was cannulated for administering the substance, and the other for administering Big-ET-1. After a 20-minute equilibration phase, the rats were administered the corresponding test substance of Formula I at a dose of as a rule 10 μmol/kg (if not stated otherwise), or a vehicle. Five minutes later, 0.5 nmol/kg Big-ET-1 was infused over a period of one minute. The systolic (SAP=systolic arterial pressure) and the diastolic (DAP=diastolic arterial pressure) blood pressure and the heart rate were each measured before administration of the substance, then immediately before administration of Big-ET and in each case every five minutes over a period of 30 minutes after Big-ET administration using the pressure transducer in known manner. The maximum Big-ET-induced increase in blood pressure and the maximum lowering of heart rate were calculated from the measured values as the difference between the value measured at the moment of maximum development of the Big-ET action (typically after 5 min.) and the value measured before Big-ET infusion. Furthermore, the integral of the blood pressure curve under the influence of Big-ET-1 was determined over 30 minutes (AUC=area under the curve).
The percentage inhibition of the maximum Big-ET-1 effect on the systolic arterial blood pressure (SAP) after i.v. administration of the test substances compared with administration of a vehicle is set forth in the following Table 3a:
Data given in table 3a as negative values indicate an inhibitory effect.

[2] = molecular target: T1, His6-tagged hSEP ectodomain (Homo sapiens, UniProt Q495T6); assay: In vitro investigation of the hSEP-inhibitory action (fluorescence-quenched Big-ET-1 analogue, HPLC); format: biochemical
T1 construct: His6-tagged hSEP ectodomain; His6; purchased Innogenetics, Ghent, Belgium
T1 sequence (Q495T6 49-779 limits assumed): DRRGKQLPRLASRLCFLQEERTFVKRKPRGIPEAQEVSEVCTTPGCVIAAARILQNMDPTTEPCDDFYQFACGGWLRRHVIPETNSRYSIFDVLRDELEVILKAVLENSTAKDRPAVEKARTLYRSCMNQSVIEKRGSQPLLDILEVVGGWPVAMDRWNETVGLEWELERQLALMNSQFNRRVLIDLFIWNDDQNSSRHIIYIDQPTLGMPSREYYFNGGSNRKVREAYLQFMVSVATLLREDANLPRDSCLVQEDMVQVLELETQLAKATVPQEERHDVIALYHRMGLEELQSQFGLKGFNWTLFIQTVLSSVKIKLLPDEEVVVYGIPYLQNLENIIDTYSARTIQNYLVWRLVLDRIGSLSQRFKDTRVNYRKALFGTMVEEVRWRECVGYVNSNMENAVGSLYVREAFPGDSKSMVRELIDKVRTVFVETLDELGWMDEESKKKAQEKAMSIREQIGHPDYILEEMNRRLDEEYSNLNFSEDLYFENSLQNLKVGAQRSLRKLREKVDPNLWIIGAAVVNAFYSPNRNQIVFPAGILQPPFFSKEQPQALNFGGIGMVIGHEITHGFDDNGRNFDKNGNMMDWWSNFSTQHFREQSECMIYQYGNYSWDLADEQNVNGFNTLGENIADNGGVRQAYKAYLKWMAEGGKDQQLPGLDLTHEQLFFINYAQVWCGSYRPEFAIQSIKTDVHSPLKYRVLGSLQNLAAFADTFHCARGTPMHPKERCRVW
Method: 2. In Vitro Investigation of the hSEP-Inhibitory Action of the Substances
In this test, the measure of the inhibitory activity of the substances which was determined was their IC50 value. The IC50 value of a test substance having enzyme-inhibitory activity is that concentration of the test substance at which 50% of the enzymatic activity of the hSEP is blocked.
The test and the HPLC procedure were carried out analogously to the manner set forth above for determining the in vitro inhibitory action of the test substances on NEP. 10 nM phosphoramidon served as standard inhibitor in the HPLC procedure. In this test model the test substances of Formula I listed in the following Table 2 had the IC50 values given below: […]

[3] = molecular target: T2, soluble, human recombinant NEP (Homo sapiens, UniProt P08473); assay: In-vitro investigation of the NEP inhibitory action (fluorescence-quenched Big-ET-1 analogue, HPLC); format: biochemical
T2 construct: soluble, human recombinant NEP; purchased Prof; Crine, University of Montreal, Canada
T2 sequence (P08473 52-750 limits assumed): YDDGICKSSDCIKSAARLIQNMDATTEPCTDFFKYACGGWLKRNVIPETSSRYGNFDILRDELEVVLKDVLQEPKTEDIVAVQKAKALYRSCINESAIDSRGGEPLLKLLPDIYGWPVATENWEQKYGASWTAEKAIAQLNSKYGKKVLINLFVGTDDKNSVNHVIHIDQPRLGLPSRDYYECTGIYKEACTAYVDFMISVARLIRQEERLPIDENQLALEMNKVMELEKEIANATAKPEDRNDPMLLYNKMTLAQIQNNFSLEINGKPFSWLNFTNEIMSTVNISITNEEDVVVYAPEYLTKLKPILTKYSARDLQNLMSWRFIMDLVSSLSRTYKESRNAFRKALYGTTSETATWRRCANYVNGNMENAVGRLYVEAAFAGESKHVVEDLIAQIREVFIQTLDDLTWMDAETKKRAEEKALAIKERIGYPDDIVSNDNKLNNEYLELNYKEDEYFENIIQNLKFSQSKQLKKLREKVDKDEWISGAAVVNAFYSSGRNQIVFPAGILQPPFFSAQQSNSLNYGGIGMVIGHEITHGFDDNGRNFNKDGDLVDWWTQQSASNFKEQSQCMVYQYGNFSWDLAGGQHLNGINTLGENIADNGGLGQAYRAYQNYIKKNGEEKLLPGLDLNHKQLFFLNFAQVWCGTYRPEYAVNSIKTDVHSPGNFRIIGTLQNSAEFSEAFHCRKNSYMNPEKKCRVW
Method: 1. In-Vitro Investigation of the NEP Inhibitory Action of the Substances
In this test, the measure of the inhibitory activity of the substances which was determined was their IC50 value. The IC50 value of a test substance having enzyme-inhibitory activity is that concentration of the test substance at which 50% of the enzymatic activity of the NEP is blocked.
70 μl test buffer, 10 μl enzyme working solution and 10 μl test substance solution were mixed in an Eppendorf vessel and preincubated at 37° C. for 15 minutes (=min.). Then 10 μl substrate stock solution was added and the test batch was incubated for 60 minutes at 37° C. The enzymatic reaction was then ended by 5-minutes' heating to 95° C. After centrifugation (Heraeus Biofuge B, 3 min.), the liquid supernatant was investigated by HPLC in accordance with the following specifications.
The substrate was separated from cleavage products by means of reversed-phase HPLC (CC 125/4 Nucleosil 300/5 C18 RP column with CC 8/4 Nucleosil 100/5 C18 precolumn, from Macherey-Nagel, Düren, Germany). For this, 60 μl of the test mixture was injected into the HPLC sample injection point and the column was then eluted at a flow rate of 1 ml/min with the following gradient:
Mobile Phase B: 100% acetonitrile+0.5M H3PO4
All the peptides were detected by absorption at 214 nm and by fluorescence with an excitation wavelength of 328 nm and an emission wavelength of 393 nm.
Upon enzymatic cleavage of the peptide, the fluorophore (=Mca) and the quencher end up in different peptide fragments, which reduces the effectiveness of the quench. […] The increasing fluorescence signal (corresponds to the area, A) of the HPLC peak of the peptide with the non-quenched Mca fluorophore is used for the further calculations. This signal was compared for samples with (=Ainhib) and without (=Acontrol) test substance of Formula I, and the value “% inhibition” was calculated on the basis of the respective peak areas according to the following formula: % inhibition=100*(1−Ainhib/Acontrol)
All the samples were measured in duplicates and average values were calculated therefrom. A standard inhibitor (10 nM thiorphan) and a solvent control (0.1% DMSO) were likewise measured as quality controls on each run. In this test model the test substances of Formula I listed in the following Table 1 had the IC50 values given below: […]

SMILES	change in vivo at 10 µmol/kg [1] [%]	IC50 [2] [nM]	IC50 [3] [nM]	change in vivo at 3 µmol/kg [1] [%]
CN(C)CCCN(C)C(=O)CC(CC1(C(=O)NC2CCc3ccccc3N(CC(=O)O)C2=O)CCCC1)C(=O)O (racemic) [Example 60, 2-[(1-{[1-(carboxymethyl)-2-oxo-2,3,4,5-tetrahydro-1H-1-benzazepin-3-yl]carbamoyl}cyclopentyl)methyl]-4-{[3-(dimethylamino)propyl](methyl)amino}-4-oxobutanoic acid]	-70			
CNC(=O)CC(CC1(C(=O)N[C@H]2CCc3ccccc3N(CC(=O)O)C2=O)CCCC1)C(=O)O (mixture of isomers) [Example 28]		11.9		
COc1ccccc1CNC(=O)CC(CC1(C(=O)N[C@H]2CCc3ccccc3N(CC(=O)O)C2=O)CCCC1)C(=O)O (single isomer, unassigned) [Example 31]		12.3	4	
CC(C)NC(=O)CC(CC1(C(=O)N[C@H]2CCc3ccccc3N(CC(=O)O)C2=O)CCCC1)C(=O)OCc1ccc(Cl)cc1 (stereo partly drawn) [Example 14, {(3S)-3-[({1-[2-{[(4-chlorobenzyl)oxy]carbonyl}-4-(isopropylamino)-4-oxobutyl]-cyclopentyl}carbonyl)amino]-2-oxo-2,3,4,5-tetrahydro-1H-1-benzazepin-1-yl}acetic acid]				-59
CN(CCO)C(=O)CC(CC1(C(=O)NC2CCc3ccccc3N(CC(=O)O)C2=O)CCCC1)C(=O)O (racemic) [Example 43, 2-{[1-({[1-(carboxymethyl)-2-oxo-2,3,4,5-tetrahydro-1H-1-benzazepin-3-yl]amino}carbonyl)cyclopentyl]methyl}-4-[(2-hydroxyethyl)(methyl)amino]-4-oxobutanoic acid]		2.9	3.2	
O=C(O)CN1C(=O)[C@@H](NC(=O)C2(CC(CC(=O)N3CCOCC3)C(=O)O)CCCC2)CCc2ccccc21 (single isomer, unassigned) [Example 19]		9.5	18.2	
CC(C)N(C)C(=O)CC(CC1(C(=O)NC2CCc3ccccc3N(CC(=O)O)C2=O)CCCC1)C(=O)O (racemic) [Example 32, 2-{[1-({[1-(carboxymethyl)-2-oxo-2,3,4,5-tetrahydro-1H-1-benzazepin-3-yl]amino}carbonyl)cyclopentyl]methyl}-4-[isopropyl(methyl)amino]-4-oxobutanoic acid]	-60		13.8	
CNCCCN(C)C(=O)CC(CC1(C(=O)NC2CCc3ccccc3N(CC(=O)O)C2=O)CCCC1)C(=O)O (racemic) [Example 77, 2-{[1-({[1-(carboxymethyl)-2-oxo-2,3,4,5-tetrahydro-1H-1-benzazepin-3-yl]amino}carbonyl)cyclopentyl]methyl}-4-{methyl[3-(methylamino)propyl]amino}-4-oxobutanoic acid]				-56
CN(C)C(=O)CC(CC1(C(=O)NC2CCc3ccccc3N(CC(=O)O)C2=O)CCCC1)C(=O)O (racemic) [Example 54, 2-{[1-({[1-(carboxymethyl)-2-oxo-2,3,4,5-tetrahydro-1H-1-benzazepin-3-yl]amino}carbonyl)cyclopentyl]methyl}-4-(dimethylamino)-4-oxobutanoic acid]	-87			
O=C(O)CN1C(=O)[C@@H](NC(=O)C2(CC(CC(=O)NCc3ccccc3)C(=O)O)CCCC2)CCc2ccccc21 (mixture of isomers) [Example 27]		26.8	7.8	
CC(C)[C@H](N)C(=O)OC1CCN(C(=O)CC(CC2(C(=O)N[C@H]3CCc4ccccc4N(CC(=O)O)C3=O)CCCC2)C(=O)O)CC1 (stereo partly drawn) [Example 70, 2-{[1-({[1-(carboxymethyl)-2-oxo-2,3,4,5-tetrahydro-1H-1-benzazepin-3-yl]amino}carbonyl)cyclopentyl]methyl}-4-oxo-4-[4-(L-valyloxy)piperidin-1-yl]butanoic acid]	-77			
CC(C)NC(=O)CC(CC1(C(=O)N[C@H]2CCc3ccccc3N(CC(=O)O)C2=O)CCCC1)C(=O)O (stereo partly drawn) [Example 2, 2-{[(3S)-1-({[1-(carboxymethyl)-2-oxo-2,3,4,5-tetrahydro-1H-1-benzazepin-3-yl]amino}-carbonyl)cyclopentyl]methyl}-4-(isopropylamino)-4-oxobutyric acid]	-53	21.4		
CC(=O)CC(C)(C)NC(=O)CC(CC1(C(=O)N[C@H]2CCc3ccccc3N(CC(=O)O)C2=O)CCCC1)C(=O)O (mixture of isomers) [Example 21]	-43		16.9	
CN(CCCO)C(=O)CC(CC1(C(=O)NC2CCc3ccccc3N(CC(=O)O)C2=O)CCCC1)C(=O)O (racemic) [Example 56, 2-{[1-({[1-(carboxymethyl)-2-oxo-2,3,4,5-tetrahydro-1H-1-benzazepin-3-yl]amino}carbonyl)cyclopentyl]methyl}-4-[(3-hydroxypropyl)(methyl)amino]-4-oxobutanoic acid]		2.5		
O=C(O)CN1C(=O)[C@@H](NC(=O)C2(CC(CC(=O)NCCCO)C(=O)O)CCCC2)CCc2ccccc21 (stereo in doubt) [Example 10, (2″rel1″)-2-{[1-({[(3S)-1-(carboxymethyl)-2-oxo-2,3,4,5-tetrahydro-1H-1-benzazepin-3-yl]amino}carbonyl)cyclopentyl]methyl}-4-[(3-hydroxypropyl)amino]-4-oxobutyric acid]		25.3	37	
